Where a name gives a salt, the structure may show the parent alone. Read-outs that look alike come from different tables or passages of the source.
Assays:
EF2K = target: T1, EF2K (Homo sapiens, UniProt O00418); test: EF2K protein kinase assay; format: biochemical; details: for remaining activity at 10 µM: 10 μM compound; for residual kinase activity EF2K: 1 μm compound; for remaining activity at 1 µM: 1 μM compound
T1 construct: All protein kinases were of human origin and encoded full length proteins, unless indicated otherwise; made in house
Source text: (§1) All protein kinases were of human origin and encoded full length proteins, unless indicated otherwise. They were either expressed as glutathione S-transferase (GST) fusion proteins in Escherichia Coli or as hexahistidine (His6)-tagged proteins in insect Sf21 cells. GST fusion proteins were purified by affinity chromatography on glutathione-Sepharose, and His6-tagged proteins on nickel/nitriloacetate-agarose. The procedures for expressing some of the protein kinases used herein have been detailed previously.^8,9 The following sections outline the DNA vectors synthesised and the procedures used to express and purifying protein kinases that have not been reported previously.
(§2) All assays (25.5 μl) were carried out at room temperature (21° C.) and were linear with respect to time and enzyme concentration under the conditions used. Assays were performed for 30 min using Multidrop Micro reagent dispensers (Thermo Electron Corporation, Waltham, Mass. 02454, USA) in a 96-well format. The concentration of magnesium acetate in the assays was 10 mM and the [γ-33P] ATP (800 cpm/pmol) was used at 5, 20 or 50 μM as indicated, in order to be at or below the Km for ATP for each enzyme. Protein kinases assayed at 5 μM ATP were: —ERK1, ERK8, PKBα, MARK3, Aurora C. Protein kinases assayed at 20 μM ATP were: —JNK1, PDK1, CHK1, CHK2, CDK2 and Aurora B. Protein kinases assayed at 50 μM ATP were: —MNK2, IKKepsilon and TBK1.
(§3) The assays were initiated with MgATP, stopped by addition of 5 μl of 0.5 M orthophosphoric acid and spotted on to P81 filterplates using a unifilter harvester (PerkinElmer, Boston, Mass. 02118, USA). The IC50 values of inhibitors were determined after carrying out assays at 10 different concentrations of each compound.
(§4) Unless stated otherwise, enzymes were diluted in 50 mM Tris/HCl pH 7.5, 0.1 mM EGTA, 1 mg/ml BSA, 0.1% (v/v) 2-mercaptoethanol and assayed in 50 mM Tris/HCl pH 7.5, 0.1 mM EGTA, 0.1% (v/v) 2-mercaptoethanol.

p38a MAPK = target: T2, p38a MAPK (Homo sapiens, UniProt Q16539); test: p38a MAPK protein kinase assay; format: biochemical; details: for remaining activity at 10 µM: 10 μM compound; for residual kinase activity p38a MAPK: 1 μm compound; for remaining activity at 1 µM: 1 μM compound
T2 construct: All protein kinases were of human origin and encoded full length proteins, unless indicated otherwise; made in house
T2 sequence (Q16539 whole entry): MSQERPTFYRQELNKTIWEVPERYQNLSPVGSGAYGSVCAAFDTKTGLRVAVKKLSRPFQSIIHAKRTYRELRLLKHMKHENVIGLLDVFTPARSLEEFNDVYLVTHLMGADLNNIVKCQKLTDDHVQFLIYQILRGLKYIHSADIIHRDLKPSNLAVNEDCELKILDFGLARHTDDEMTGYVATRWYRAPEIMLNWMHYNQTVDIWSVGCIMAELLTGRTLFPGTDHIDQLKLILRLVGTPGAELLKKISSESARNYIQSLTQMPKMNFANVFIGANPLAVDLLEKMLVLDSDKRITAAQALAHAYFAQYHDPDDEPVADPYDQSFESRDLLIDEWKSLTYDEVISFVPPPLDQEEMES
Source text: as §1, §2, §3, §4

BTK = target: T3, BTK (Homo sapiens, UniProt Q06187); test: BTK protein kinase assay; format: biochemical; details: for remaining activity at 10 µM: 10 μM compound; for residual kinase activity BTK: 1 μm compound; for remaining activity at 1 µM: 1 μM compound
T3 construct: All protein kinases were of human origin and encoded full length proteins, unless indicated otherwise; made in house
T3 sequence (Q06187 whole entry): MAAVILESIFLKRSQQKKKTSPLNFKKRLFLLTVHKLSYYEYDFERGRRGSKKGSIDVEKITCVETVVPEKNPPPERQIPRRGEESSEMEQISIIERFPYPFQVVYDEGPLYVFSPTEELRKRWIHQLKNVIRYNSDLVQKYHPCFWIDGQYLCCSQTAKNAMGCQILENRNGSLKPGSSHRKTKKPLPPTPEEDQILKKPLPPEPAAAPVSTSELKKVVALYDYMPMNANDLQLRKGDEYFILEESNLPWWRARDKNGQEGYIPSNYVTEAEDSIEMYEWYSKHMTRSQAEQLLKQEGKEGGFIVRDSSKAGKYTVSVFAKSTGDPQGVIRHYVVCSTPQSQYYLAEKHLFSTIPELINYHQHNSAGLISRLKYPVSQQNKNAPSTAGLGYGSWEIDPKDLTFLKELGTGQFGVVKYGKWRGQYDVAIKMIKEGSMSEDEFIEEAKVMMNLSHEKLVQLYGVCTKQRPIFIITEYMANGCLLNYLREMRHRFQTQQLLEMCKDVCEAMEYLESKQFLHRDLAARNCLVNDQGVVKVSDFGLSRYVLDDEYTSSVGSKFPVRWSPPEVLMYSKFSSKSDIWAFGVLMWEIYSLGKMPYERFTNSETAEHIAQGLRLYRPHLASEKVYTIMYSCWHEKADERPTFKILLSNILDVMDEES
Source text: as §1, §2, §3, §4

PAK6 = target: T4, PAK6 (Homo sapiens, UniProt Q9NQU5); test: PAK6 protein kinase assay; format: biochemical; details: for remaining activity at 10 µM: 10 μM compound; for residual kinase activity PAK6: 1 μm compound; for remaining activity at 1 µM: 1 μM compound
T4 construct: All protein kinases were of human origin and encoded full length proteins, unless indicated otherwise; made in house
T4 sequence (Q9NQU5 whole entry): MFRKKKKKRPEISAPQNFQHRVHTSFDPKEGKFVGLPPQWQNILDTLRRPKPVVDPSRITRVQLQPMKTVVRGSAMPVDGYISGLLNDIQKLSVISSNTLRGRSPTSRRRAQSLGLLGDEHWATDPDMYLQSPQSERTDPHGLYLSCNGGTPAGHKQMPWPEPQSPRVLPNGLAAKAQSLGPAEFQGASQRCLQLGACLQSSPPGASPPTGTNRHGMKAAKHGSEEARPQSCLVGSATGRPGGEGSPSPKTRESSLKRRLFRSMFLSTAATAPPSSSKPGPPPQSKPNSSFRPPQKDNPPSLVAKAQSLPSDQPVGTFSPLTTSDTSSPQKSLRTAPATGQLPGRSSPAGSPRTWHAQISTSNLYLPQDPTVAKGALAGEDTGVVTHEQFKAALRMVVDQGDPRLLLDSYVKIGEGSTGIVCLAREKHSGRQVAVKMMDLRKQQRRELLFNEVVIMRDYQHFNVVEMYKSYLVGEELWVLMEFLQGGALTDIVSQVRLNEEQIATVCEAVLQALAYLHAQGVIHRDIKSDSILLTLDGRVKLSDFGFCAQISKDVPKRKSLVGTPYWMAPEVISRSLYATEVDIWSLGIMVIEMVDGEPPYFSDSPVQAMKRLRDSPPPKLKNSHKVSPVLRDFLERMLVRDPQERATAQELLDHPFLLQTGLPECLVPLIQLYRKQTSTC
Source text: as §1, §2, §3, §4

ERK1 = target: T5, ERK1 (Homo sapiens, UniProt P27361); test: ERK1 protein kinase assay; format: biochemical; details: for remaining activity at 10 µM: 10 μM compound; for residual kinase activity ERK1: 1 μm compound; for remaining activity at 1 µM: 1 μM compound
T5 construct: All protein kinases were of human origin and encoded full length proteins, unless indicated otherwise; GST; made in house; host or cells: E. coli
T5 sequence (P27361 whole entry): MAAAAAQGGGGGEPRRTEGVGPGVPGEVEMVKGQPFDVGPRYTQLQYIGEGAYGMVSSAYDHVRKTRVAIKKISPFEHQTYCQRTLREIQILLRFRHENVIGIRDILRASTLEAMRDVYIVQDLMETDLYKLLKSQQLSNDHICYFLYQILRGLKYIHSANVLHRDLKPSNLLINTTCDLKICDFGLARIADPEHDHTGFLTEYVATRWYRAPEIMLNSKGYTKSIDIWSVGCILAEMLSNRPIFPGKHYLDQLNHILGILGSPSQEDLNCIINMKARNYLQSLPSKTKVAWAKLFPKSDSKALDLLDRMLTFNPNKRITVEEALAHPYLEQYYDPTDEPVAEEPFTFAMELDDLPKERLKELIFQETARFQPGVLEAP
Source text: as §1
The following proteins were expressed in E. coli: —CHK2[5-543], cyclin-dependent protein kinase 2 (CDK2), MAP kinase-interacting kinase 2 (MNK2), extra-cellular signal-regulated kinase 1 (ERK1).
In order to produce activated forms of Aurora B and Aurora C, insect Sf21 cells were incubated for 1 h with the protein phosphatase inhibitor okadaic acid (50 nM). JNK isoforms were activated with MKK4 and MKK7, MNK2 with p38α MAPkinase; PKBα, PKBβ, with PDK1, and ERK1 with MKK1. To activate CDK2, bacterial pellets expressing cyclin A2 and CDK2 were mixed together, lyse and purified on glutathione Sepharose. The GST-tags were removed by cleavage with PreScission protease and the CDK2-cyclin A2 complex purified by chromatography on SP-Sepharose. It was then activated with CAK1/CDK7 followed by chromatography on nickel-nitrilotriacetate agarose to remove CAK1/CDK7, which binds to this column by virtue of its C-terminal His6 tag. All the other protein kinases were active as expressed.
as §2, §3
ERK1 and ERK8 were both assayed against myelin basic protein (MBP, 0.33 mg/ml). MARK3 was assayed against the peptide […] (300 μM), MNK2 against the eIF4E protein (0.5 mg/ml). PKBβ was assayed against the peptide […] (30 μM). TBK1 were assayed against ([…]) (300 μM). The substrates used for other protein kinases were described previously.^8,9
as §4

PLK1 = target: T6, PLK1 (Homo sapiens, UniProt P53350); test: PLK1 protein kinase assay; format: biochemical; details: for remaining activity at 10 µM: 10 μM compound; for residual kinase activity PLK1: 1 μm compound; for remaining activity at 1 µM: 1 μM compound
T6 construct: All protein kinases were of human origin and encoded full length proteins, unless indicated otherwise; made in house
T6 sequence (P53350 whole entry): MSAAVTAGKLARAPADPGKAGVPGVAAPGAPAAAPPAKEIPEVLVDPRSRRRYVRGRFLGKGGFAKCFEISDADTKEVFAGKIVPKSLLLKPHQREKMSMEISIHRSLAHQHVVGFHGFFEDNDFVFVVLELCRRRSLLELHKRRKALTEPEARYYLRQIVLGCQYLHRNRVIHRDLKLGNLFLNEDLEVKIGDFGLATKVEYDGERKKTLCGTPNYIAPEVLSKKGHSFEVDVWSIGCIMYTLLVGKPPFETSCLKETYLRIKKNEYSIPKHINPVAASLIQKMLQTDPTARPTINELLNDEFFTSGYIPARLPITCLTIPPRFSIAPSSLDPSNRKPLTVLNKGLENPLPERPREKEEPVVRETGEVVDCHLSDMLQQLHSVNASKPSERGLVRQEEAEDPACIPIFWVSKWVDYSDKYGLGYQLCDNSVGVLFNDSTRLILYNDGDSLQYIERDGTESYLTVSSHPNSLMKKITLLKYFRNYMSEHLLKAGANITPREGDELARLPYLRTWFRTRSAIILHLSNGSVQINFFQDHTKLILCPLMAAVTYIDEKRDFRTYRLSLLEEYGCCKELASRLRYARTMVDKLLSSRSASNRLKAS
Source text: as §1, §2, §3, §4

PAK5 = target: T7, PAK5 (Homo sapiens, UniProt Q9P286); test: PAK5 protein kinase assay; format: biochemical; details: for remaining activity at 10 µM: 10 μM compound; for residual kinase activity PAK5: 1 μm compound; for remaining activity at 1 µM: 1 μM compound
T7 construct: All protein kinases were of human origin and encoded full length proteins, unless indicated otherwise; made in house
T7 sequence (Q9P286 425-719 limits assumed): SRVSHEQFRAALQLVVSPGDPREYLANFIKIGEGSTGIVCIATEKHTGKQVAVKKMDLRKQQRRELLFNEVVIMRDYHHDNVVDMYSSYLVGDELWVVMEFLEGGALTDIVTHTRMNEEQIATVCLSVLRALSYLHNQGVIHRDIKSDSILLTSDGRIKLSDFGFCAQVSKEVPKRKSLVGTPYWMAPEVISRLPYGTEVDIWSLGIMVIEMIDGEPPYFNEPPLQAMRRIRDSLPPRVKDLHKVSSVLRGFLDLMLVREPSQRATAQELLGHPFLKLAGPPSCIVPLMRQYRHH
Source text: as §1, §2, §3, §4

DYRK2 = target: T8, DYRK2 (Homo sapiens, UniProt Q92630); test: DYRK2 protein kinase assay; format: biochemical; details: for remaining activity at 10 µM: 10 μM compound; for residual kinase activity DYRK2: 1 μm compound; for remaining activity at 1 µM: 1 μM compound
T8 construct: All protein kinases were of human origin and encoded full length proteins, unless indicated otherwise; made in house
T8 sequence (Q92630 1-601): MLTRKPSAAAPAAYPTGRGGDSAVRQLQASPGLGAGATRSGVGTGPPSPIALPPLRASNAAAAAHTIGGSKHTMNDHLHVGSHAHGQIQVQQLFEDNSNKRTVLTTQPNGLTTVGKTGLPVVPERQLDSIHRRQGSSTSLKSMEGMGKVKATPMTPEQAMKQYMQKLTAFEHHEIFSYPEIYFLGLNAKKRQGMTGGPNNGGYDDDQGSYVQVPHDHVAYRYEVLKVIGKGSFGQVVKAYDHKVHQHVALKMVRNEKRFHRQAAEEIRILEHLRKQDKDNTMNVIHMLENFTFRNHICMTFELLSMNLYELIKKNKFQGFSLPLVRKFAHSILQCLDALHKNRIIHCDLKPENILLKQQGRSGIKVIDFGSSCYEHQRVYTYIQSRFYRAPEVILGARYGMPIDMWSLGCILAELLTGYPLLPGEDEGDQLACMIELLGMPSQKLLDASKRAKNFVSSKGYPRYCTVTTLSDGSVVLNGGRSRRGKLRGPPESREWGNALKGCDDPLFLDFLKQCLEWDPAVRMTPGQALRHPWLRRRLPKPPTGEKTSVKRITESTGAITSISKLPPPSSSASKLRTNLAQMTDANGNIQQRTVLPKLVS
Source text: as §1, §2, §3, §4

IRR = IRR protein kinase assay; format: biochemical, human; details: for residual kinase activity: IRR
Source text: as §1, §2, §3, §4

[1] = read-out: residual kinase activity EF2K
[2] = read-out: residual kinase activity p38a MAPK
[3] = read-out: residual kinase activity BTK
[4] = read-out: residual kinase activity PAK6
[5] = read-out: residual kinase activity ERK1
[6] = read-out: residual kinase activity PLK1
[7] = read-out: residual kinase activity PAK5
[8] = read-out: residual kinase activity DYRK2
[9] = EF2K, read-out: residual kinase activity
[10] = p38a MAPK, read-out: residual kinase activity
[11] = BTK, read-out: residual kinase activity
[12] = PAK6, read-out: residual kinase activity
[13] = ERK1, 5 μM ATP, read-out: residual kinase activity
[14] = PLK1, read-out: residual kinase activity
[15] = PAK5, read-out: residual kinase activity
[16] = DYRK2, read-out: residual kinase activity

SMILES	remaining activity at 10 µM (EF2K; [1])	residual kinase activity EF2K (EF2K)	remaining activity at 1 µM (EF2K; [9])	remaining activity at 10 µM (EF2K; [9])	remaining activity at 1 µM (p38a MAPK; [10])	remaining activity at 10 µM (p38a MAPK; [10])	remaining activity at 1 µM (BTK; [11])	remaining activity at 10 µM (BTK; [11])	remaining activity at 1 µM (PAK6; [12])	remaining activity at 10 µM (PAK6; [12])	remaining activity at 1 µM (ERK1; [13])	remaining activity at 10 µM (ERK1; [13])	remaining activity at 1 µM (PLK1; [14])	remaining activity at 10 µM (PLK1; [14])	remaining activity at 1 µM (PAK5; [15])	remaining activity at 10 µM (PAK5; [15])	remaining activity at 1 µM (DYRK2; [16])	remaining activity at 10 µM (DYRK2; [16])	residual kinase activity (IRR; 1 μM compound)	residual kinase activity (IRR; 10 μM compound)	also measured
O=C(NCCCNc1nc(Nc2cccc(F)c2)ncc1Br)C1CCC1 [Compound A, cyclobutanecarboxylic acid {3-[5-bromo-2-(3-fluoro-phenylamino)-pyrimidin-4-ylamino]-propyl}-amide, reference compound]	88%	96%																			remaining activity at 10 µM (p38a MAPK; [2]): 78%; residual kinase activity p38a MAPK (p38a MAPK): 99%; remaining activity at 10 µM (BTK; [3]): 33%; residual kinase activity BTK (BTK): 94%; remaining activity at 10 µM (PAK6; [4]): 14%; residual kinase activity PAK6 (PAK6): 45%; remaining activity at 10 µM (ERK1; [5]): 7%; residual kinase activity ERK1 (ERK1): 28%; remaining activity at 10 µM (PLK1; [6]): 45%; residual kinase activity PLK1 (PLK1): 82%; remaining activity at 10 µM (PAK5; [7]): 14%; residual kinase activity PAK5 (PAK5): 46%; remaining activity at 10 µM (DYRK2; [8]): 6%; residual kinase activity DYRK2 (DYRK2): 36%; residual kinase activity IRR (IRR; 10 μM compound): 15%; residual kinase activity IRR (IRR; 1 μm compound): 32%
O=C(NCCCNc1nc(Nc2cccc(F)c2)ncc1C1CC1)C1CCC1 [Example 23, Cyclobutanecarboxylic acid {3-[5-cyclopropyl-2-(3-fluoro-phenylamino)-pyrimidin-4-ylamino]-propyl}-amide]	125%	105%	105%	125%	72%	86%	74%	25%	82%	50%	88%	75%	90%	62%	74%	56%	67%	50%	44%	17%	remaining activity at 10 µM (p38a MAPK; [2]): 86%; residual kinase activity p38a MAPK (p38a MAPK): 72%; remaining activity at 10 µM (BTK; [3]): 25%; residual kinase activity BTK (BTK): 74%; remaining activity at 10 µM (PAK6; [4]): 50%; residual kinase activity PAK6 (PAK6): 82%; remaining activity at 10 µM (ERK1; [5]): 75%; residual kinase activity ERK1 (ERK1): 88%; remaining activity at 10 µM (PLK1; [6]): 62%; residual kinase activity PLK1 (PLK1): 90%; remaining activity at 10 µM (PAK5; [7]): 56%; residual kinase activity PAK5 (PAK5): 74%; remaining activity at 10 µM (DYRK2; [8]): 50%; residual kinase activity DYRK2 (DYRK2): 67%; residual kinase activity IRR (IRR; 10 μM compound): 17%; residual kinase activity IRR (IRR; 1 μm compound): 44%
O=C(NCCCNc1nc(Nc2cccc(N3CCCC3=O)c2)ncc1C1CC1)c1cccs1 [Example 47, Thiophene-2-carboxylic acid (3-{5-cyclopropyl-2-[3-(2-oxo-pyrrolidin-1-yl)-phenylamino]-pyrimidin-4-ylamino}-propyl)-amide. Hydrochloride salt]			105%	104%	105%	100%	93%	61%	77%	85%	89%	81%	88%	75%	69%	68%	81%	63%	64%	25%	
O=C(NCCCNc1nc(Nc2cccnc2)ncc1C1CC1)c1cccs1 [Example 50, Thiophene-2-carboxylic acid {3-[5-cyclopropyl-2-(pyridin-3-ylamino)-pyrimidin-4-ylamino]-propyl}-amide]			108%	101%	106%	90%	93%	66%	78%	50%	99%	65%	101%	66%	73%	47%	76%	38%	39%	17%	

— US20100056524A1, “Compound” (priority 2008, published 2010)
